US4716171A (Etablissements Nativelle S.A., priority 1981, dated 1987)
Read-outs that look alike come from different tables or passages of the source.

Tests used:
[1] = LD50 in mice (Lichfield and Wilcoxon method); conditions: mouse, in vivo
Description: (§1) For example, the results obtained with 3S-hydroxy-10,11-dihydroquinidine in the form of the hydrochloride salt are shown in Table 1 below.

[2] = Electrophysiological study in anesthetized dog (closed thorax, bipolar catheter-electrodes); format: in vivo
Experimental: The study was carried out on a dog anesthetized with pentobarbital, with a closed thorax, by means of bipolar catheter-electrodes introduced into the cardiac cavities by transcutaneous venous and arterial tracts.
In this manner and by means of a programmable stimulator, sinusal automaticity, intracardiac conduction times, and the effective and functional cardiac refractory periods can be measured.

arrhythmia = test: Test with aconitine (arrhythmia appearance time); format: in vivo, rats; conditions: for Appearance Time, ESV (ventricular extrasystoles): control 98; for Appearance Time, TV (ventricular tachycardium): control 112; for Appearance Time, FV (ventricular fibrillation): control 228; for Appearance Time, ESV (ventricular extrasystoles), %: vs control 98; for Appearance Time, TV (ventricular tachycardium), %: vs control 112
Description: (§2) Antiarrhythmic activity in mice was observed by means of the Lawson test, using the method described by J. W. Lawson, J. Pharmacol. Exp. Therp., 160, 22-31 (1968) and Cr. Narcisse et al. Ann. Pharma. Fr., 37, 325-330 (1979), in rats by the test with aconitine of S. Witchitz et al. Coeur Med. Int., X(2), 281-286 (1971), and in dogs by the Harris test described in Circulation, 1, 1318 (1950). 3S-hydroxy-10,11-dihydroquinidine was used for each of these three tests.

ventricular arrhythmia = test: Harris test; format: in vivo, dogs; conditions: for % Protection / % Protection, Average: dogs, I.V.; for % Protection, Average: average of Exp. 1 and 2
Description: as §2

[3] = LD50 in rats (Lichfield and Wilcoxon method); conditions: rat, in vivo, male, oral
Description: as §1

[4] = parameters: species or system dogs; conditions: dog, in vivo, iv
Experimental: The parameters were recorded by means of: catheters connected to pressure sensors (arterial pressure, left ventricular pressure and its first dp/dt derivative); electromagnetic flowmeter on the aorta (aortic flow); electrocardiograph; strain gauge placed on the left ventricular myocardium (myocardiac contraction force).

[5] = test system: anoxic ventricular fibrillation; test: Lawson test (antifibrillatory power); format: in vivo, mice
Description: as §2
The Lawson test enables the study of the cardiac antifibrillatory power of the derivatives of the present invention. […] The efficacity dose 50 (ED50) indicated in Table 4 is the dose which protects half of the mice against anoxic ventricular fibrillation.

## C=C[C@H]1C[N@@]2CC[C@H]1C[C@@H]2[C@@H](O)c1ccnc2ccc(OC)cc12 [Quinidine, quinidine, reference compound]
[1]; ip, mice (male and female), intraperitoneal, comparison, read-out: LD50 (average values)
  LD50: 225 to 235 mg/kg
[2]; 1 mg/kg
  Cardiac Cycle, percentage of variation: +2.7%
  HV (HissPurkinje conduction), percentage of variation: 0%
  PREA (Effective auricular refractory period), percentage of variation: +2%
  PREV (Effective ventricular refractory period), percentage of variation: +3.3%
  PRFN (Functional nodal refractory period), percentage of variation: +3%
  QRS (Intraventricular conduction), percentage of variation: 0%
  QTc (Corrected repolarization time), percentage of variation: +1.8%
  SH (AuriculoHissian conduction), percentage of variation: +3.5%
[2]; 5 mg/kg
  Cardiac Cycle, percentage of variation: +5.1%
  HV (HissPurkinje conduction), percentage of variation: +8.7%
  PREA (Effective auricular refractory period), percentage of variation: +3.5%
  PREV (Effective ventricular refractory period), percentage of variation: +6.5%
  PRFN (Functional nodal refractory period), percentage of variation: +5%
  QRS (Intraventricular conduction), percentage of variation: 0%
  QTc (Corrected repolarization time), percentage of variation: 0%
  SH (AuriculoHissian conduction), percentage of variation: +7.2%
[2]; 10 mg/kg
  Cardiac Cycle, percentage of variation: +9.2%
  HV (HissPurkinje conduction), percentage of variation: +17.7%
  PREA (Effective auricular refractory period), percentage of variation: +14.4%
  PREV (Effective ventricular refractory period), percentage of variation: +8.5%
  PRFN (Functional nodal refractory period), percentage of variation: +9%
  QRS (Intraventricular conduction), percentage of variation: 0%
  QTc (Corrected repolarization time), percentage of variation: +1.5%
  SH (AuriculoHissian conduction), percentage of variation: +10.5%
arrhythmia; rats, I.V., 10 mg/kg
  Appearance Time, ESV (ventricular extrasystoles): 150 min
  Appearance Time, TV (ventricular tachycardium): 171 min
  Appearance Time, FV (ventricular fibrillation): 474 min
  Appearance Time, ESV (ventricular extrasystoles), %: +53%
  Appearance Time, TV (ventricular tachycardium), %: +52%
Ventricular arrhythmia; quinidine, 6 mg/kg, 1 h
  % Protection: 21%
Ventricular arrhythmia; quinidine, +5 mg, 1 h
  % Protection: 55%
Ventricular arrhythmia; quinidine, +5 mg, 2 h
  % Protection: 52%

## CC[C@@]1(O)CN2CC[C@H]1C[C@@H]2[C@@H](O)c1ccnc2ccc(OC)cc12 [3S-hydroxy-10,11-dihydroquinidine]
[1]; ip, mice, female, IP, read-out: LD50
  LD50: 180 mg/kg
[1]; ip, mice, male, IP, read-out: LD50
  LD50: 280 mg/kg
[1]; iv, mice, female, IV, read-out: LD50
  LD50: 105 mg/kg
[1]; iv, mice, male, IV, read-out: LD50
  LD50: 120 mg/kg
[1]; po, mice, female, oral, read-out: LD50
  LD50: 900 mg/kg
[1]; po, mice, male, oral, read-out: LD50
  LD50: 975 mg/kg
[3]
  LD50: 640 mg/kg

## CC[C@@]1(O)CN2CC[C@H]1C[C@@H]2[C@@H](O)c1ccnc2ccc(OC)cc12 [3S-hydroxy-10,11-dihydroquinidine, 3S-Hydroxy-10,11-dihydroquinidine]
[4]
  cardiac flow (in words): no significant change before a cumulative dose of 20 mg/kg is reached
  cardiac frequency (in words): not significantly modified before a cumulative dose of 20 mg/kg is reached
  myocardiac contraction force (in words): no change
  systolic arterial pressure (in words): diminishes progressively with the dose, the effects only becoming considerable for a cumulative dose greater than 10 mg/kg
[4]; 0.5 mg/kg
  Cardiac Flow, variation in relation to initial value: -50 ± 50 mL/min
  Cardiac Frequency, variation in relation to initial value: -2 ± 6 beats/min.
  Force of Contractions of the Myocardium, variation in relation to initial value: -3 ± 3 g
  Systolic Arterial Pressure, variation in relation to initial value: -11 ± 4 mmHg
  Total Peripheral Resistance, variation in relation to initial value: -382 ± 180
[4]; 4 mg/kg
  Cardiac Flow, variation in relation to initial value: -90 ± 143 mL/min
  Cardiac Frequency, variation in relation to initial value: -5 ± 2 beats/min.
  Force of Contractions of the Myocardium, variation in relation to initial value: 0 ± 1 g
  Systolic Arterial Pressure, variation in relation to initial value: -20 ± 5 mmHg
  Total Peripheral Resistance, variation in relation to initial value: -457 ± 277
[4]; 5 mg/kg
  Cardiac Flow, variation in relation to initial value: -316 ± 412 mL/min
  Cardiac Frequency, variation in relation to initial value: -3 ± 16 beats/min.
  Force of Contractions of the Myocardium, variation in relation to initial value: 2 ± 1 g
  Systolic Arterial Pressure, variation in relation to initial value: -23 ± 7 mmHg
  Total Peripheral Resistance, variation in relation to initial value: -376 ± 227
[4]; 10 mg/kg
  Cardiac Flow, variation in relation to initial value: -775 ± 498 mL/min
  Cardiac Frequency, variation in relation to initial value: -15 ± 13 beats/min.
  Force of Contractions of the Myocardium, variation in relation to initial value: 8 ± 1 g
  Systolic Arterial Pressure, variation in relation to initial value: -36 ± 13 mmHg
  Total Peripheral Resistance, variation in relation to initial value: -91
[2]; 1 mg/kg
  Cardiac Cycle, percentage of variation: +4.5%
  HV (HissPurkinje conduction), percentage of variation: +10.8%
  PREA (Effective auricular refractory period), percentage of variation: +8%
  PREV (Effective ventricular refractory period), percentage of variation: -1.5%
  PRFN (Functional nodal refractory period), percentage of variation: 0%
  QRS (Intraventricular conduction), percentage of variation: +14.4%
  QTc (Corrected repolarization time), percentage of variation: +2.8%
  SH (AuriculoHissian conduction), percentage of variation: +1.7%
[2]; 5 mg/kg
  Cardiac Cycle, percentage of variation: +5.1%
  HV (HissPurkinje conduction), percentage of variation: +20.9%
  PREA (Effective auricular refractory period), percentage of variation: +16%
  PREV (Effective ventricular refractory period), percentage of variation: +2.8%
  PRFN (Functional nodal refractory period), percentage of variation: +5.5%
  QRS (Intraventricular conduction), percentage of variation: +14.4%
  QTc (Corrected repolarization time), percentage of variation: +7%
  SH (AuriculoHissian conduction), percentage of variation: +3.8%
[2]; 10 mg/kg
  Cardiac Cycle, percentage of variation: +14. %
  HV (HissPurkinje conduction), percentage of variation: +32.8%
  PREA (Effective auricular refractory period), percentage of variation: +23.7%
  PREV (Effective ventricular refractory period), percentage of variation: +6.5%
  PRFN (Functional nodal refractory period), percentage of variation: +12.6%
  QRS (Intraventricular conduction), percentage of variation: +22%
  QTc (Corrected repolarization time), percentage of variation: +6%
  SH (AuriculoHissian conduction), percentage of variation: +15%
[2]; compared with quinidine
  cardiac frequency (in words): slows cardiac frequency like quinidine
  cardiac refractory periods, level of the auricles (in words): greater than those of quinidine
  cardiac refractory periods, ventricular and nodal stage (in words): effects equivalent to those of quinidine
  conduction in the His-Purkinje system (in words): effects greater than those of quinidine
[2]; dog, in vivo
  conduction between the auricles and the trunk of the His fasciculus (in words): slightly changes conduction
[5]; Mus musculus, ip, mice, I.P., read-out: ED 50 (dose which protects half of the mice against anoxic ventricular fibrillation)
  ED50: 72.5 mg/kg
[5]; compared with quinidine
  antifibrillatory efficacity (in words): comparable to that of quinidine
arrhythmia; compared with quinidine
  protective effect against arrhythmia (in words): greater than that of quinidine
arrhythmia; compared with quinidine, quantitative level
  activity in the test with aconitine (in words): considerably more active than quinidine
arrhythmia; rats, I.V., 10 mg/kg
  Appearance Time, ESV (ventricular extrasystoles): 208 min
  Appearance Time, TV (ventricular tachycardium): 253 min
  Appearance Time, FV (ventricular fibrillation): 504 min
  Appearance Time, ESV (ventricular extrasystoles), %: +112%
  Appearance Time, TV (ventricular tachycardium), %: +125%
arrhythmia; rats, I.V., 10 mg/kg, vs control 228
  Appearance Time, FV (ventricular fibrillation), %: +121%
Ventricular arrhythmia; 6 mg/kg, compared with quinidine
  decrease in ventricular arrhythmia (in words): greater with the compound of the present invention than with quinidine
Ventricular arrhythmia; 6 mg/kg, 1 h, Exp. 1
  % Protection: 65%
Ventricular arrhythmia; 6 mg/kg, 1 h, Exp. 2
  % Protection: 39%
Ventricular arrhythmia; 6 mg/kg, 1 h
  % Protection, Average: 52%
Ventricular arrhythmia; +10 mg/kg, 1 h, Exp. 1
  % Protection: 72%
Ventricular arrhythmia; +10 mg/kg, 1 h, Exp. 2
  % Protection: 42%
Ventricular arrhythmia; +10 mg/kg, 1 h
  % Protection, Average: 57%
Ventricular arrhythmia; +10 mg/kg, 2 h, Exp. 1
  % Protection: 97%
Ventricular arrhythmia; +10 mg/kg, 2 h, Exp. 2
  % Protection: 41%
Ventricular arrhythmia; +10 mg/kg, 2 h
  % Protection, Average: 69%
Ventricular arrhythmia; higher doses, compared with quinidine
  efficacity (in words): comparable for higher doses
